Data from patent US6858638B2, “Substituted indazoles, compositions containing them, method of production and use” (Aventis Pharma S.A., priority 2002, dated 2005).

What was measured:
Aurora2 kinase = biological target: T1, Aurora2 kinase (Homo sapiens, UniProt O14965); test: Aurora2 kinase radioactivity scintillation assay using nickel chelate (NuMA substrate); type: biochemical; details: 10 μM; for inhibition at 10 µM: read-out: Aurora2 % inhib at 10 μM
T1 construct: A complete recombinant Aurora2 enzyme; His tag (N); made in house; host or cells: E. coli
T1 sequence (O14965 1-403): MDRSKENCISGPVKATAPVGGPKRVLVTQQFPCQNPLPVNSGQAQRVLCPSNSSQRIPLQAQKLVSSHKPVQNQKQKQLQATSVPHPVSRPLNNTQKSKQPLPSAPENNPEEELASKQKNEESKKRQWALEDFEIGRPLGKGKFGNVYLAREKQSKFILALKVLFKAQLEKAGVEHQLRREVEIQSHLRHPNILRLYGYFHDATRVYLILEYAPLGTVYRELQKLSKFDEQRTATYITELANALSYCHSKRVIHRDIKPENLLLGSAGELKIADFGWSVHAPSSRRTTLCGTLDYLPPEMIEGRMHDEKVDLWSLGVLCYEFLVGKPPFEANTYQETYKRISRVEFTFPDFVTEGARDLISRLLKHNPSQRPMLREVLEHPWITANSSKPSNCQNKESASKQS
Method in brief: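 Read-out is 33P incorporation into His-NuMA (Q1687-H2101, 0.5 μM) captured on nickel chelate, after 30 min at 37 °C with 0.02 μM His-Aurora2 and 1 μM ATP. Expressed as percentage inhibition of uncompounded control activity, background subtracted.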

c-Src protein = test: Src kinase phosphorylation of biotinylated cdc2 substrate, fluorescence (DELFIA); type: biochemical, human
Experimental: The inhibition of the Src kinase is evaluated by measuring the phosphorylation of the biotinylated cdc2 substrate (Pierce) detected by fluorescence (DELFIA) using an antiphosphotyrosine antibody labeled with Europium, in 96-well Wallac plates. The c-Src protein used is a recombinant human protein produced in Baculovirus, comprising the SH3 and SH2 and the catalytic domains. The enzyme, the substrate and the various concentrations of test compounds are placed in the well in a 50 mM Tris buffer containing 10 mM MgCl2. The reaction is initiated by adding 10 μM of ATP. After incubation for 60 minutes at 30° C., the reaction is stopped by adding 75 mM EDTA. 50 μl are taken from each well and transferred into a plate coated with streptavidin. After incubation for 30 minutes at 25° C., the wells are washed with a washing buffer (Wallac) and then the antiphosphotyrosine antibody (PY20-Europium [Perkin Elmer]) is added in a volume of 75 μl. The plate is incubated for 30 minutes at 25° C. and then an “Enhancer” solution (Wallac) is added before reading the fluorescence using a fluorimeter (Perkin Elmer). The background noise is evaluated in triplicate in wells containing the substrate and the antibody in the absence of enzyme. The activity of the enzyme is measured (in triplicate) in the wells containing all the reagents in the absence of compound. The inhibition of the Src activity is expressed as percentage inhibition of the activity of the control determined in the absence of compound. The compound PP2 (Calbiochem) is included at various concentrations in each experiment as an inhibition control.

Structure (SMILES)	inhibition at 10 µM (Aurora2 kinase)	SRC % inhib at 10 μM (c-Src protein)	melting point	Aurora2 % inhib at 10 μM (Aurora2 kinase)
CS(=O)(=O)c1ccccc1S(=O)(=O)Nc1ccc2[nH]nc(N)c2c1 [Example 39, N-(3-Amino-1H-indazol-5-yl)-2-methylsulfonylbenzenesulfonamide]	81%	–	246 °C	–
CS(=O)(=O)c1ccccc1S(=O)(=O)Nc1ccc2[nH]nc(-c3ccco3)c2c1 [Example 53, N-(3-Furan-2-yl-1H-indazol-5-yl)-2-methylsulfonylbenzenesulfonamide]	91%	–	248 °C	–
CS(=O)(=O)c1ccccc1S(=O)(=O)Nc1ccc2[nH]nc(-c3ccc(N)cc3)c2c1 [Example 70, N-[3-(4-Aminophenyl)-1H-indazol-5-yl]-2-methylsulfonylbenzenesulfonamide]	98%	–	154 °C	–
Nc1n[nH]c2ccc(NS(=O)(=O)c3cc(F)cc(F)c3)cc12 [Example 42, N-(3-Amino-1H-indazol-5-yl)-3,5-difluorobenzenesulfonamide]	50%	–	232 °C	–
COC(=O)c1cccc(-c2n[nH]c3ccc(NS(=O)(=O)c4ccccc4S(C)(=O)=O)cc23)c1 [Example 55, Methyl 3-[5-(2-methylsulfonylbenzenesulfonamino)-1H-indazol-3-yl]benzoate]	94%	–	202 °C	–
CS(=O)(=O)c1ccccc1S(=O)(=O)Nc1ccc2[nH]nc(-c3ccc(F)cc3)c2c1 [Example 33, N-[3-(4-Fluorophenyl)-1H-indazol-5-yl]-2-methylsulfonylbenzenesulfonamide]	89%	–	209 °C	–
Nc1n[nH]c2ccc(NS(=O)(=O)c3c(Cl)cccc3Cl)cc12 [Example 41, N-(3-Amino-1H-indazol-5-yl)-2,6-dichlorobenzenesulfonamide]	90%	–	250 °C	–
CS(=O)(=O)c1ccccc1S(=O)(=O)Nc1ccc2[nH]nc(-c3ccncc3)c2c1 [Example 54, 2-Methylsulfonyl-N-(3-pyridin-4-yl-1H-indazol-5-yl)benzenesulfonamide]	100%	–	265 °C	–
Nc1n[nH]c2ccc(NS(=O)(=O)c3c(F)cccc3F)cc12 [Example 40, N-(3-Amino-1H-indazol-5-yl)-2,6-difluorobenzenesulfonamide]	70%	–	241 °C	–
Nc1n[nH]c2ccc(NS(=O)(=O)c3cccc(F)c3)cc12 [Example 26, N-(3-Amino-1H-indazol-5-yl)-3-fluorobenzenesulfonamide]	95%	–	216 °C	–
CS(=O)(=O)c1ccccc1S(=O)(=O)Nc1ccc2[nH]nc(-c3ccoc3)c2c1 [Example 52, N-(3-Furan-3-yl-1H-indazol-5-yl)-2-methylsulfonylbenzenesulfonamide]	84%	–	249 °C	–
CS(=O)(=O)c1ccccc1S(=O)(=O)Nc1ccc2[nH]nc(NCc3ccccc3)c2c1 [Example 36, N-(3-Benzylamino-1H-indazol-5-yl)-2-methylsulfonylbenzenesulfonamide]	80%	–	226 °C	–
CNc1n[nH]c2ccc(NS(=O)(=O)c3ccccc3S(C)(=O)=O)cc12 [Example 37, N-(3-Methylamino-1H-indazol-5-yl)-2-methylsulfonylbenzenesulfonamide]	36%	–	220 °C	–
COc1ccc(-c2n[nH]c3ccc(NS(=O)(=O)c4ccccc4S(C)(=O)=O)cc23)cc1 [Example 32, N-[3-(4-Methoxyphenyl)-1H-indazol-5-yl]-2-methylsulfonylbenzenesulfonamide]	92%	–	244 °C	–

Next, values leading:

inhibition at 10 µM (Aurora2 kinase)	SRC % inhib at 10 μM (c-Src protein)	melting point	Aurora2 % inhib at 10 μM (Aurora2 kinase)	Structure (SMILES)
100%	18%	–	–	Cc1ccccc1S(=O)(=O)Nc1ccc2[nH]nc(-c3ccccc3)c2c1 [Example 132, 2-Methyl-N-(3-phenyl-1H-indazol-5-yl)-benzenesulfonamide]
70%	–	239 °C	–	Cc1cc2[nH]nc(-c3ccccc3)c2cc1NS(=O)(=O)c1ccccc1S(C)(=O)=O [Example 92, 2-Methylsulfonyl-N-(6-methyl-3-phenyl-1H-indazol-5-yl)-benzenesulfonamide]
93%	–	240 °C	–	CS(=O)(=O)c1ccccc1S(=O)(=O)Nc1ccc2[nH]nc(-c3cccc(C#N)c3)c2c1 [Example 71, N-[3-(3-Cyanophenyl)-1H-indazol-5-yl]-2-methylsulfonylbenzenesulfonamide]
100%	54%	–	–	O=S(=O)(Nc1ccc2[nH]nc(-c3ccccc3)c2c1)c1ccc(Cl)s1 [Example 135, 5-Chloro-N-(3-phenyl-1H-indazol-5-yl)thiophene-2-sulfonamide]
89%	–	224 °C	–	CS(=O)(=O)c1ccc(F)cc1S(=O)(=O)Nc1ccc2[nH]nc(-c3ccccc3)c2c1 [Example 93, 5-Fluoro-2-methylsulfonyl-N-(3-phenyl-1H-indazol-5-yl)-benzenesulfonamide]
100%	47%	–	–	O=S(=O)(Nc1ccc2[nH]nc(-c3ccccc3)c2c1)c1ccccc1 [Example 112, N-(3-Phenyl-1H-indazol-5-yl)benzenesulfonamide]
67%	24%	–	–	O=C(O)c1cccc(S(=O)(=O)Nc2ccc3[nH]nc(-c4ccccc4)c3c2)c1 [Example 133, 3-(3-Phenyl-1H-indazol-5-ylsulfamoyl)benzoic acid]
100%	–	172 to 174 °C	–	O=S(=O)(Nc1ccc2[nH]nc(-c3cc4ccccc4[nH]3)c2c1)c1ccccc1OC(F)(F)F [Example 84, N-[3-(1H-Indol-2-yl)-1H-indazol-5-yl]-2-trifluoromethoxybenzenesulfonamide]
92%	–	198 °C	–	CS(=O)(=O)c1ccccc1S(=O)(=O)Nc1ccc2[nH]nc(C#Cc3ccccc3)c2c1 [Example 89, 2-Methylsulfonyl-N-(3-phenylethynyl-1H-indazol-5-yl)-benzenesulfonamide]
97%	36%	–	–	COc1ccc(OC)c(S(=O)(=O)Nc2ccc3[nH]nc(-c4ccccc4)c3c2)c1 [Example 131, 2,5-Dimethoxy-N-(3-phenyl-1H-indazol-5-yl)-benzenesulfonamide]
95%	–	253 °C	–	COC(=O)/C=C/c1n[nH]c2ccc(NS(=O)(=O)c3ccccc3S(C)(=O)=O)cc12 [Example 79, Methyl (E)-3-[5(2-methylsulfonylbenzenesulfonylamino)-1H-indazol-3-yl]-acrylate]
–	–	167 °C	30%	CC(=O)Nc1ccc(S(=O)(=O)Nc2ccc3[nH]nc(-c4ccccc4)c3c2)cc1 [Example 95, N-[4-(3-Phenyl-1H-indazol-5-ylsulfamoyl)phenyl]acetamide]
44%	–	230 °C	–	O=S(=O)(Nc1ccc2[nH]nc(-c3ccccc3)c2c1)C1CCNCC1 [Example 100, N-(3-Phenyl-1H-indazol-5-yl)-piperidine-4-sulfonamide]
65%	–	249 °C	–	Nc1ccc(S(=O)(=O)Nc2ccc3[nH]nc(-c4ccccc4)c3c2)cc1 [Example 94, 4-Amino-N-(3-phenyl-1H-indazol-5-yl)benzenesulfonamide]
55%	–	195 °C	–	CS(=O)(=O)c1ccccc1S(=O)(=O)Nc1ccc2[nH]nc(Sc3ccccc3)c2c1 [Example 88, 2-Methylsulfonyl-N-(3-phenylsulfanyl-1H-indazol-5-yl)-benzenesulfonamide]
99%	–	248 °C	–	CS(=O)(=O)c1ccccc1S(=O)(=O)Nc1ccc2[nH]nc(/C=C/c3ccc(F)cc3)c2c1 [Example 74, N-{3-[(E)-2-(4-Fluorophenyl)vinyl]-1H-indazol-5-yl}-2-methylsulfonylbenzenesulfonamide]
99%	–	247 °C	–	CS(=O)(=O)c1ccccc1S(=O)(=O)Nc1ccc2[nH]nc(/C=C/c3ccc(Cl)cc3)c2c1 [Example 76, N-{3-[(E)-2-(4-Chlorophenyl)vinyl]-1H-indazol-5-yl}-2-methylsulfonylbenzenesulfonamide]
